Test results as given in patent publication US20100272675A1, “METHOD OF ADMINISTERING CONJUGATES” (ENDOCYTE, INC., priority 2007, published 2010).

What was measured:
[1] = tested on: 4T1c2 cells (a breast tumor cell line); assay: Effect of ligand conjugates on tumor volume for mice with breast tumor implants; format: in vivo
Description: Two regimens were tested. In the first regimen, six to eight-week old (˜20-22 grams) female Balb/c mice were immunized with fluorescein isothiocyanate (FITC)-labeled keyhole limpet hemocyanin (KLH; see FIG. 5) at 35 μg/dose using a saponin adjuvant (e.g., GPI-0100; 100 μg/dose) at days 1, 15, and 29. On day 23, each animal was injected with 2.5×10^5 4T1c2 cells (a breast tumor cell line). Cancer loci were then allowed to grow. From days 42-60, all animals were injected daily ((qd×5)3; days 42-46, 49-53, and 56-60) with either phosphate buffered saline (PBS) or 500 nmol/kg of FITC-conjugated to folic acid via a gamma carboxyl-linked ethylene diamine bridge (see FIG. 4). The animals were injected on the same days with 20,000 U/dose of recombinant human IL-2. The animals were injected (TIW)3 with IL-2 in the same weeks as the animals were injected with folate-FITC.
In the second regimen, six to eight-week old (˜20-22 grams) female Balb/c mice were immunized with fluorescein isothiocyanate (FITC)-labeled keyhole limpet hemocyanin (KLH) at 35 μg/dose using a saponin adjuvant (e.g., GPI-0100; 100 μg/dose) at days 1, 15, and 29. On day 5, each animal was injected with 2.5×10^5 4T1c2 cells. Cancer loci were then allowed to grow. From days 8-50, all animals were injected daily ((qd×5)6) with either phosphate buffered saline (PBS) or 500 nmol/kg of FITC-conjugated to folic acid via a gamma carboxyl-linked ethylene diamine bridge. The animals were injected daily on days 32-50 with 20,000 U/dose of recombinant human IL-2. The animals were injected (TIW)3 with IL-2 in the same weeks as the animals were injected with folate-FITC.
The efficacy of this immunotherapy was then evaluated by monitoring tumor volume as a function of time for folate-FITC treated mice compared to control animals.

[2] = Active systemic anaphylaxis assay in guinea pigs immunized against EC90 plus GPI-0100 adjuvant; format: in vivo; details: guinea pigs immunized days 1, 8, 15 with EC90 plus 0.5 mg GPI-0100; de-sensitized days 8-12 and 15-19 with EC17 spiked with 10% (mole) Bis-FITC-eda; s.c. challenge day 22
Description: Male and female guinea pigs (1 per sex per group) were immunized three times, on Days 1, 8, and 15, with various doses of EC90 plus 0.5 mg GPI-0100. A single dose of test article (EC17+/− Bis-FITC-eda) was administered (s.c.) on Day 22. Guinea pigs were de-sensitized with multiple doses of EC 17 spiked with 10% (mole) Bis-FITC-eda on Days 8-12, and 15-19. On Day 22, these animals were s.c. challenged with the same EC17/Bis-FITC-eda formulation. Clinical observations were generally taken for 1.5-2 hours post challenge. […] Complete macroscopic postmortem examinations were performed on all animals (FIG. 9).

## Nc1nc2ncc(CNc3ccc(C(=O)NC(CCC(=O)NCCNC(=S)Nc4ccc(-c5c6ccc(=O)cc-6oc6cc(O)ccc56)c(C(=O)O)c4)C(=O)O)cc3)nc2c(=O)[nH]1 (stereo not shown) [EC17]
[1]; Balb/c mice immunized with KLH-FITC 35 μg/dose + GPI-0100 100 μg/dose, folate-FITC 500 nmol/kg daily plus IL-2 20,000 U/dose, early or late dosing protocol
  tumor volume as a function of time compared to control animals: decreased
[1]; folate-FITC 500 nmol/kg daily (qd×5)6 from days 8-50, IL-2 20,000 U/dose days 32-50
  effect on tumor volume, early dosing protocol: effective in decreasing tumor volume
[1]; folate-FITC 500 nmol/kg, late: days 42-60, early: days 8-50, plus IL-2
  tumor volume, early versus late dosing protocol: similar
[2]
  allergenicity (signs of anaphylaxis after s.c. challenge), effect of early dosing: reduces allergenicity
